Measured values taken from patent US9138003B2, “Phosphonates and derivatives thereof as enhancers of the activity of insecticides” (Syngenta Crop Protection Inc., priority 2002, dated 2015).
Values joined by “and” are separate entries in the source; they are usually repeats but may differ in a detail not shown here. Equal entries are not always repeated.

How the values were obtained:
Format in all cases: in vivo
[1] = test system: Plutella xylostella; assay: feeding/contact test against Plutella xylostella; settings: for % control, Alone: no BEEP; for % control, +BEEP: with 0.5% BEEP
Description: The activity of lambda-cyhalothrin, profenofos and indoxacarb combined with 0.5% bis(2-ethylhexyl)-2-ethylhexyl phosphonate (BEEP) was compared with a corresponding formulation containing no bis(2-ethylhexyl)-2-ethylhexyl phosphonate in a feeding/contact test against Plutella xylostella. The results are set out in Table 2 and show % control.

[2] = test system: L1/L2 Liriomyza huidobriensis, leaf miner; assay: curative control of L1/L2 leaf miner within bean leaves; settings: for % control, Alone: no BEEP; for % control, +BEEP: with 0.5% BEEP
Description: The activity of a range of insecticides combined with 0.5% bis(2-ethylhexyl)-2-ethylhexyl phosphonate (BEEP) was compared with a corresponding formulation containing no bis(2-ethylhexyl)-2-ethylhexyl phosphonate in a test of curative control of L1/L2 Liriomyza huidobriensis, leaf miner. The results are set out in Table 1 and show % control of this leaf miner within bean leaves.

[3] = test system: R2 Myzus persicae; assay: translaminar test (3 day assessment time) against R2 Myzus persicae; settings: 0.5% BEEP, no insecticide
Description: The activity of lambda-cyhalothrin, as Karate 10CS with 0.5% bis(2-ethylhexyl)-2-ethylhexyl phosphonate (BEEP) was compared with a Karate 10CS containing no bis(2-ethylhexyl)-2-ethylhexyl phosphonate in a translaminar test (3 day assessment time) against R2 Myzus persicae. The results are set out in Table 3 and show % control.

[4] = test system: Aphis gossypii; assay: translaminar test (3 day assessment time) against Aphis gossypii; settings: 0.5% BEOP, no insecticide
Description: The activity of thiamethoxam as Actara 25WG with bis(2-ethylhexyl) octyl phosphonate (BEOP) at 0.5% was compared with Actara containing no bis(2-ethylhexyl) octyl phosphonate in a translaminar test (3 day assessment time) against Aphis gossypii. The results are set out in Table 4 and show % control.

With CC1(C)[C@H](C(=O)O[C@H](C#N)c2cccc(Oc3ccccc3)c2)[C@@H]1/C=C(\Cl)C(F)(F)F (racemic) [Lambda-cyhalothrin] the “% control, Alone” value ([1]; 0.31 ppm) was 54%, the “% control, +BEEP” value ([1]; 0.31 ppm) was 100% and the “% control, Alone” value ([1]; 0.63 ppm) was 66%. For the same compound, the “% control, +BEEP” value ([1]; 0.63 ppm) was 100%, the “% control, Alone” value ([1]; 1.25 ppm) was 83% and the “% control, +BEEP” value ([1]; 1.25 ppm) was 100%. For the same compound, the “% control, Alone” value ([1]; 2.5 ppm) was 95% and the “% control, +BEEP” value ([1]; 2.5 ppm) was 100%.
CCCCC(CC)COP(=O)(CC(CC)CCCC)OCC(CC)CCCC (stereo not shown) [BEEP, bis(2-ethylhexyl)-2-ethylhexyl phosphonate] was tested, and the “% control, Control +BEEP” value ([2]; 0.5% BEEP, no insecticide) was 0%, the “% control, Control +BEEP” value ([1]; 0.5% BEEP, no insecticide) was 11% and 20% and the “% control, Control +BEEP” value [3] was 4%.
For CCCCCCCCP(=O)(OCC(CC)CCCC)OCC(CC)CCCC (stereo not shown) [BEOP, bis(2-ethylhexyl) octyl phosphonate], the “% control, Control +BEOP” value [4] was 3%.
N#Cc1nn(-c2c(Cl)cc(C(F)(F)F)cc2Cl)c(N)c1[S+]([O-])C(F)(F)F (stereo not shown) [Fipronil] was tested, and the “% control, Alone” value ([2]; 400 ppm) was 60%, the “% control, +BEEP” value ([2]; 400 ppm) was 100% and the “% control, Alone” value ([2]; 600 ppm) was 69%. The “% control, +BEEP” value ([2]; 600 ppm) was 100%, the “% control, Alone” value ([2]; 800 ppm) was 66% and the “% control, +BEEP” value ([2]; 800 ppm) was 100%. The “% control, Alone” value ([2]; 1000 ppm) was 83% and the “% control, +BEEP” value ([2]; 1000 ppm) was 100%.
For COC(=O)N(C(=O)N1CO[C@@]2(C(=O)OC)Cc3cc(Cl)ccc3C2=N1)c1ccc(OC(F)(F)F)cc1 [Indoxacarb], the “% control, Alone” value ([1]; 0.16 ppm) was 32%, the “% control, +BEEP” value ([1]; 0.16 ppm) was 57% and the “% control, Alone” value ([1]; 0.31 ppm) was 26%. For the same compound, the “% control, +BEEP” value ([1]; 0.31 ppm) was 80%, the “% control, Alone” value ([1]; 0.63 ppm) was 32% and the “% control, +BEEP” value ([1]; 0.63 ppm) was 98%. The “% control, Alone” value ([1]; 1.25 ppm) was 80% and the “% control, +BEEP” value ([1]; 1.25 ppm) was 100%.
With CCCSP(=O)(OCC)Oc1ccc(Br)cc1Cl (stereo not shown) [Profenofos] the “% control, Alone” value ([1]; 12.5 ppm) was 16%, the “% control, +BEEP” value ([1]; 12.5 ppm) was 65% and the “% control, Alone” value ([1]; 25 ppm) was 41%. For the same compound, the “% control, +BEEP” value ([1]; 25 ppm) was 95%, the “% control, Alone” value ([1]; 50 ppm) was 95% and the “% control, +BEEP” value ([1]; 50 ppm) was 100%. The “% control, Alone” value ([1]; 100 ppm) was 100% and the “% control, +BEEP” value ([1]; 100 ppm) was 100%.
With CCOCn1c(-c2ccc(Cl)cc2)c(C#N)c(Br)c1C(F)(F)F [chlorfenpyr] the “% control, Alone” value ([2]; 400 ppm) was 0%, the “% control, +BEEP” value ([2]; 400 ppm) was 100% and the “% control, Alone” value ([2]; 600 ppm) was 15%. The “% control, +BEEP” value ([2]; 600 ppm) was 100%, the “% control, Alone” value ([2]; 800 ppm) was 0% and the “% control, +BEEP” value ([2]; 800 ppm) was 100%. The “% control, Alone” value ([2]; 1000 ppm) was 28% and the “% control, +BEEP” value ([2]; 1000 ppm) was 100%.
In the case of Nc1nc(N)nc(NC2CC2)n1 [cypromazine], the “% control, Alone” value ([2]; 25 ppm) is reported as 27%, the “% control, +BEEP” value ([2]; 25 ppm) is reported as 28% and the “% control, Alone” value ([2]; 50 ppm) is reported as 57%. The “% control, +BEEP” value ([2]; 50 ppm) was 83%, the “% control, Alone” value ([2]; 100 ppm) was 81% and the “% control, +BEEP” value ([2]; 100 ppm) was 100%. For the same compound, the “% control, Alone” value ([2]; 200 ppm) was 100% and the “% control, +BEEP” value ([2]; 200 ppm) was 100%.
In the case of CN1COCN(Cc2cnc(Cl)s2)/C1=N\[N+](=O)[O-] [thiamethoxam], the “% control, Alone” value ([2]; 400 ppm) is reported as 0%, the “% control, +BEEP” value ([2]; 400 ppm) is reported as 20% and the “% control, Alone” value ([2]; 600 ppm) is reported as 0%. The “% control, +BEEP” value ([2]; 600 ppm) was 43%, the “% control, Alone” value ([2]; 800 ppm) was 0% and the “% control, +BEEP” value ([2]; 800 ppm) was 63%. For the same compound, the “% control, Alone” value ([2]; 1000 ppm) was 12% and the “% control, +BEEP” value ([2]; 1000 ppm) was 68%.
For Abamectin, the “% control, Alone” value ([2]; 3.13 ppm) was 27%, the “% control, +BEEP” value ([2]; 3.13 ppm) was 99% and the “% control, Alone” value ([2]; 6.25 ppm) was 48%. The “% control, +BEEP” value ([2]; 6.25 ppm) was 100%, the “% control, Alone” value ([2]; 12.5 ppm) was 74% and the “% control, +BEEP” value ([2]; 12.5 ppm) was 100%. The “% control, Alone” value ([2]; 25 ppm) was 96% and the “% control, +BEEP” value ([2]; 25 ppm) was 100%.
With spinosad the “% control, Alone” value ([2]; 400 ppm) was 42%, the “% control, +BEEP” value ([2]; 400 ppm) was 100% and the “% control, Alone” value ([2]; 600 ppm) was 73%. The “% control, +BEEP” value ([2]; 600 ppm) was 100%, the “% control, Alone” value ([2]; 800 ppm) was 82% and the “% control, +BEEP” value ([2]; 800 ppm) was 100%. The “% control, Alone” value ([2]; 1000 ppm) was 81% and the “% control, +BEEP” value ([2]; 1000 ppm) was 100%.
